From the NIST ThermoML archive (doi:10.1021/je400529k)

Tests used:
[1] = refractive index (Na D-line) (dimensionless); xn = mol fraction of the nth substance listed; conditions: 101 kPa, Liquid, Standard Abbe refractometry
[2] = xn = mol fraction of the nth substance listed; conditions: 101 kPa, Liquid; for viscosity: Capillary tube (Ostwald / Ubbelohde) method; for mass density: Vibrating tube method

C1C[C@@H]2[C@H]3CC[C@H](C3)[C@@H]2C1 [exo-tetrahydrodicyclopentadiene] + C1CCCCC1
Conditions	mass density, [2] [kg/m3]	refractive index, [1]	viscosity, [2] [mPa·s]
293.15 K, x1 = 0.0998	799.53	1.4357	1.13
293.15 K, x1 = 0.2006	819.11	1.4426	1.296
293.15 K, x1 = 0.3003	837.1	1.4495	1.462
293.15 K, x1 = 0.3996	853.82	1.4564	1.633
293.15 K, x1 = 0.4987	869.42	1.4624	1.814
293.15 K, x1 = 0.6005	884.43	1.4683	2.016
293.15 K, x1 = 0.7002	898.3	1.4732	2.231
293.15 K, x1 = 0.8008	911.5	1.4781	2.463
293.15 K, x1 = 0.9	923.87	1.4829	2.72
293.15 K, x1 = 1	935.72	1.4874	2.992
298.15 K, x1 = 0.0998	794.92	–	1.032
298.15 K, x1 = 0.2006	814.56	–	1.18
298.15 K, x1 = 0.3003	832.65	–	1.327
298.15 K, x1 = 0.3996	849.45	–	1.481
298.15 K, x1 = 0.4987	865.15	–	1.645
298.15 K, x1 = 0.6005	880.23	–	1.828
298.15 K, x1 = 0.7002	894.2	–	2.024
298.15 K, x1 = 0.8008	907.48	–	2.236
298.15 K, x1 = 0.9	919.92	–	2.466
298.15 K, x1 = 1	931.84	–	2.71
303.15 K, x1 = 0.0998	790.27	1.4305	0.948
303.15 K, x1 = 0.2006	809.99	1.4373	1.08
303.15 K, x1 = 0.3003	828.19	1.4449	1.212
303.15 K, x1 = 0.3996	845.07	1.4512	1.351
303.15 K, x1 = 0.4987	860.86	1.4582	1.5
303.15 K, x1 = 0.6005	876.06	1.4633	1.668
303.15 K, x1 = 0.7002	890.08	1.4689	1.846
303.15 K, x1 = 0.8008	903.43	1.4739	2.037
303.15 K, x1 = 0.9	915.95	1.4789	2.248
303.15 K, x1 = 1	927.94	1.4831	2.467
308.15 K, x1 = 0.0998	785.6	–	0.874
308.15 K, x1 = 0.2006	805.41	–	0.993
308.15 K, x1 = 0.3003	823.69	–	1.113
308.15 K, x1 = 0.3996	840.68	–	1.239
308.15 K, x1 = 0.4987	856.56	–	1.375
308.15 K, x1 = 0.6005	871.85	–	1.528
308.15 K, x1 = 0.7002	885.97	–	1.691
308.15 K, x1 = 0.8008	899.4	–	1.866
308.15 K, x1 = 0.9	911.98	–	2.056
308.15 K, x1 = 1	924.02	–	2.255
313.15 K, x1 = 0.0998	780.9	1.4238	0.808
313.15 K, x1 = 0.2006	800.82	1.4319	0.917
313.15 K, x1 = 0.3003	819.19	1.439	1.026
313.15 K, x1 = 0.3996	836.28	1.4456	1.141
313.15 K, x1 = 0.4987	852.26	1.453	1.267
313.15 K, x1 = 0.6005	867.63	1.4583	1.407
313.15 K, x1 = 0.7002	881.85	1.4642	1.555
313.15 K, x1 = 0.8008	895.35	1.4689	1.715
313.15 K, x1 = 0.9	907.1	1.4737	1.888
313.15 K, x1 = 1	920.11	1.4786	2.069
318.15 K, x1 = 0.0998	–	–	0.751
318.15 K, x1 = 0.2006	–	–	0.848
318.15 K, x1 = 0.3003	–	–	0.949
318.15 K, x1 = 0.3996	–	–	1.055
318.15 K, x1 = 0.4987	–	–	1.169
318.15 K, x1 = 0.6005	–	–	1.298
318.15 K, x1 = 0.7002	–	–	1.435
318.15 K, x1 = 0.8008	–	–	1.581
318.15 K, x1 = 0.9	–	–	1.741
318.15 K, x1 = 1	–	–	1.907

C1C[C@@H]2[C@H]3CC[C@H](C3)[C@@H]2C1 [exo-tetrahydrodicyclopentadiene] + CC1CCCCC1
Conditions	mass density, [2] [kg/m3]	refractive index, [1]	viscosity, [2] [mPa·s]
293.15 K, x1 = 0.1	788.79	1.4298	0.842
293.15 K, x1 = 0.2009	807.71	1.4376	0.959
293.15 K, x1 = 0.301	825.81	1.4447	1.102
293.15 K, x1 = 0.3999	843.02	1.4515	1.267
293.15 K, x1 = 0.4999	859.94	1.4586	1.454
293.15 K, x1 = 0.5992	876.09	1.4646	1.67
293.15 K, x1 = 0.7004	891.98	1.4709	1.925
293.15 K, x1 = 0.7995	906.95	1.4768	2.22
293.15 K, x1 = 0.9011	921.82	1.482	2.582
293.15 K, x1 = 1	935.72	1.4874	2.992
298.15 K, x1 = 0.1	784.53	–	0.785
298.15 K, x1 = 0.2009	803.5	–	0.892
298.15 K, x1 = 0.301	821.64	–	1.023
298.15 K, x1 = 0.3999	838.89	–	1.171
298.15 K, x1 = 0.4999	855.86	–	1.34
298.15 K, x1 = 0.5992	872.05	–	1.534
298.15 K, x1 = 0.7004	887.96	–	1.762
298.15 K, x1 = 0.7995	902.99	–	2.026
298.15 K, x1 = 0.9011	917.88	–	2.347
298.15 K, x1 = 1	931.84	–	2.71
303.15 K, x1 = 0.1	780.25	1.4253	0.735
303.15 K, x1 = 0.2009	799.26	1.4324	0.833
303.15 K, x1 = 0.301	817.46	1.4402	0.952
303.15 K, x1 = 0.3999	834.75	1.4472	1.087
303.15 K, x1 = 0.4999	851.75	1.4539	1.239
303.15 K, x1 = 0.5992	867.99	1.4599	1.416
303.15 K, x1 = 0.7004	883.94	1.4662	1.621
303.15 K, x1 = 0.7995	899.01	1.4722	1.857
303.15 K, x1 = 0.9011	913.94	1.478	2.146
303.15 K, x1 = 1	927.94	1.4831	2.467
308.15 K, x1 = 0.1	775.95	–	0.692
308.15 K, x1 = 0.2009	795.01	–	0.781
308.15 K, x1 = 0.301	813.26	–	0.89
308.15 K, x1 = 0.3999	830.6	–	1.013
308.15 K, x1 = 0.4999	847.64	–	1.151
308.15 K, x1 = 0.5992	863.93	–	1.312
308.15 K, x1 = 0.7004	879.91	–	1.497
308.15 K, x1 = 0.7995	895.01	–	1.709
308.15 K, x1 = 0.9011	910	–	1.967
308.15 K, x1 = 1	924.02	–	2.255
313.15 K, x1 = 0.1	771.64	1.4198	0.652
313.15 K, x1 = 0.2009	790.75	1.4276	0.733
313.15 K, x1 = 0.301	809.05	1.4351	0.834
313.15 K, x1 = 0.3999	826.43	1.4421	0.947
313.15 K, x1 = 0.4999	843.53	1.449	1.074
313.15 K, x1 = 0.5992	859.84	1.4549	1.218
313.15 K, x1 = 0.7004	875.88	1.4617	1.388
313.15 K, x1 = 0.7995	891.03	1.4672	1.579
313.15 K, x1 = 0.9011	906.04	1.4732	1.81
313.15 K, x1 = 1	920.11	1.4786	2.069
318.15 K, x1 = 0.1	767.31	–	0.616
318.15 K, x1 = 0.2009	786.48	–	0.691
318.15 K, x1 = 0.301	804.83	–	0.783
318.15 K, x1 = 0.3999	822.26	–	0.887
318.15 K, x1 = 0.4999	839.4	–	1.003
318.15 K, x1 = 0.5992	855.75	–	1.135
318.15 K, x1 = 0.7004	871.84	–	1.29
318.15 K, x1 = 0.7995	887.03	–	1.463
318.15 K, x1 = 0.9011	902.08	–	1.672
318.15 K, x1 = 1	916.18	–	1.907
